Results: patent US11786479B2, “Nucleic acid nanocapsules for drug delivery and targeted gene knockdown” (University of Connecticut, priority 2017, dated 2023)

Tests used:
HeLa cells = experiment: MTS assay of PMA-treated HeLa cells with camptothecin-loaded MMP9-NANs; assay type: cell-based; settings: HeLa cells treated with PMA for 21 h
Description: In order to test the correlation between enzyme expression level within a live cell and the ability of the pep-NANs to be degraded, an additional assay was run in which HeLa cells were treated with phorbol 12-myristate 13-acetate (PMA), a known inducer of MMP9 expression in HeLa cells. Cells were incubated in serum-free media and treated with MMP9-NANs carrying camptothecin, a known apoptotic cancer drug. The toxicity of the drug loaded MMP9-NANs was evaluated using an MTS assay post 21 h PMA treatment, allowing enough time for MMP9 expression.

GATA-3 mRNA truncate [1] = experiment: Kinetics cleavage assay (BHQ-mRNA fluorescence); assay type: biochemical; settings: 10 nM DNAzyme, mRNA truncate 10-200 nM, 37° C.
Source text: Kinetics Cleavage Assay: To determine the kinetics of the cleavage of GATA-3 by both the free and NAN-bound DNAzyme, a fluorescence-based assay was developed. A mRNA truncate corresponding to the cleavable sequence in GATA-3 mRNA was purchased (BioSearch Technologies). The truncate, herein referred to as BHQ-mRNA, was functionalized with a quencher (BHQ1) at the 3′ end and a fluorescein derivative (FAM) at the 5′ end. […] All fluorescence measurements were taken using a Horiba Jobin Yvon fluorometer and, unless otherwise stated, all samples were excited at 470 nm and measurements taken from 485 nm to […]. Samples were heated to their stated temperature using a Cary single cell peltier accessory. A solution of MgCl2 (10 mM), NaCl (100 mM), DNAzyme (10 nM) and H2O was prepared in a total volume 400 μL. The DNAzyme solution was heated to 70° C. for ten minutes prior to mixing. The sample was cooled to and held at 37° C. in the fluorometer and an initial background reading was taken. BHQ mRNA (10 nM, BioSearch Technologies) was spiked into the sample and the fluorescence monitored over 20 minutes. Additional measurements were taken at 25, 50, 75, and 200 nM concentrations of mRNA. This same procedure was repeated for the DNAzyme-NAN (10 nM). […] All non-linear fits for assigning Vmax values were determined using Kaleidagraph 4.5 graphing software.

[2] = test system: mRNA truncate within the Au NP lipoplex; experiment: mRNA cleavage across AuNP-templated lipid bilayer (synthetic lipoplex); assay type: biochemical; settings: equal concentrations of DNAzyme
Source text: A synthetic lipoplex system was designed to help monitor mRNA cleavage across a lipid bilayer (FIG. 16A). This construct was built using a gold nanoparticle (Au NP) as it can support a simplified lipid bilayer system (FIG. 16B). At the Au NPs surface, both a thiolated DNA molecule and a thiolated PEG-DSPE molecule were assembled (1:2 ratio). The DNA at the surface serves as an anchoring site for the annealing of the 19mer mRNA truncate. For this assay, the same mRNA truncate that was utilized in the kinetics assay was used. Therefore, unless cleaved, the molecule should have limited fluorescence as it has both the BHQ quencher and FAM modifications. This construct was further encapsulated with DOPE, to form a bilayer around the AuNPs, a procedure previously disclosed (Shen et al. Nanoscale, 2016, 8, 14821-14835.) These particles were then subjected to either the free DNAzyme or DNAzyme-surfactants, and the extent of mRNA cleavage evaluated as a function of increases observed in overall fluorescence. To mimic more closely the DNz-surfactant that would results from the DNz-NANs post degradation by endosomal esterases, a modified surfactant which presented only two alkynes was synthesized, attached the DNA anchor to it, and ligated DNAzymes to the anchor to form a DNAzyme-surfactant conjugate. […] All conditions had equal concentrations of DNAzyme.

GATA-3 mRNA truncate [3] = experiment: Cleavage assay of mRNA truncate, polyacrylamide gel; assay type: biochemical; settings: 37° C., 4 h
Description: Cleavage Assay. To test the activity of the GATA-3 DNAzyme, both free DNAzyme and 5 μM of ligated NANs were incubated with 0.5 μM GATA-3 mRNA truncate, both in the presence and absence of salts (10 mM MgCl2 and 100 mM NaCl). The different reactions were then run on an 8% denaturing polyacrylamide gel at 350 V for 30 minutes. The gel was scanned using both a 473 nm laser and a 532 nm laser.

MCF-7 cells = experiment: Confocal microscopy uptake of TYE-665 labeled DNAzyme in MCF-7 cells; assay type: cell-based; settings: 4 hours of incubation
Description: FIG. 15 illustrates cellular uptake and targeted gene knockdown by DNAzyme-NANs in MCF-7 cells. (A) Confocal microscopy of free DNAzymes labeled with TYE-665 dye transfected into MCF-7 cells and monitored for evidence of cellular uptake post 4 hours of incubation. (B) Confocal microscopy of DNz-NANs incubated with cells without transfection agents in which the DNAzyme on the NAN was also labeled with TYE-665 dye. […] All scale bars are 20 μm. (C) GATA-3 mRNA knockdown in MCF-7 cells. 250 nM DNz-NAN is capable of knocking down mRNA by 60% compared to untreated cells (N=3, p=0.0016). […] Error bars represent the standard error of the mean (N=3). (D) MCF-7 cells treated with 250 nM DNz-NANs, monitored for GATA-3 mRNA levels via qRT-PCR at times ranging from 4 to 48 hours of incubation.
Targeted cleavage is only possible if the DNz-NAN can disassemble and the DNz-surfactants can escape the endosomal compartments of the cell post endocytosis. To study the suitability of the DNz-NAN for cellular uptake and stability of its DNAzyme ligands in the cell, the DNz-NANs were first incubated in 10% fetal bovine serum to mimic exposure to cellular nucleases. […] 1 μM Dye-DNz-NANs were incubated with MCF-7 cells for 4 hr and monitored for evidence of uptake using confocal microscopy (FIGS. 15A and 15B). […]

Row | Molecule | no toxicity up to (HeLa cells) | Km (GATA-3 mRNA truncate [1]) [µM] | access to and cleavage of mRNA truncate across lipid bilayer (fluorescence) [2] | cleavage of truncated GATA-3 mRNA (gel) (GATA-3 mRNA truncate [3]) | cellular uptake (TYE-665 signal) (MCF-7 cells)
1 | CCCCCCCCCCCCCC(=O)O[C@@H]1[C@@H](C)[C@@]2(O)[C@@H](C=C(CO)C[C@]3(O)C(=O)C(C)=C[C@@H]23)[C@@H]2C(C)(C)[C@]12OC(C)=O [PMA, phorbol 12-myristate 13-acetate] | up to 150 ng/mL | – | – | – | –
2 | DNAzyme: GATA-3 targeting DNAzyme (hgd40), SEQ ID NO:2 (DNA GTGGATGGAGGCTAGCTACAACGAGTCTTGGAG; GATA-3 DNAzyme; misc_structure (1)..(1) monophosphorylated site) | – | 0.059 | limited change in signal | complete cleavage | TYE signal could be observed in the perinuclear region of the cells
